Assay results: US8916558B2, “Powders for reconstitution” (Tibotec Pharmaceuticals Ltd., priority 2007, dated 2014)

Test: Solubility of TMC278 in water (statement)
Assay type: physicochemical
Conditions: free base; background statement

Cc1cc(C=CC#N)cc(C)c1Nc1ccnc(Nc2ccc(C#N)cc2)n1 [TMC278, 4-[[4-[[4-(2-cyano-ethenyl)-2,6-dimethylphenyl]-amino]-2-pyrimidinyl]-amino]-benzonitrile]
solubility in water: poorly soluble in water
